Experimental data reported in BindingDB's records for doi:10.1016/j.ejmech.2015.12.016 (Shenyang Pharmaceutical University, 2016).

Legend:
[1] = Inhibition of c-Met (unknown origin) by tumor cell growth inhibition assay
[2] = Inhibition of VEGFR-1 (unknown origin) by tumor cell growth inhibition assay
[3] = Inhibition of VEGFR-2 (unknown origin) by tumor cell growth inhibition assay
[4] = Inhibition of VEGFR-3 (unknown origin) by tumor cell growth inhibition assay

IC50 [1]: 1 nM | IC50 [2]: 3 nM | IC50 [3]: 3 nM | IC50 [4]: 4 nM
Structure (SMILES): Cn1ccnc1-c1cc2c(Oc3ccc(NC(=S)NC(=O)Cc4ccccc4)cc3F)ccnc2s1
